# What was measured:
# S. aureus = experiment: MIC, broth microdilution, S. aureus; type: cell-based; settings: Staphylococcus aureus
# Method: (§1) Bacteria were cultured in cation-adjusted Mueller Hinton Broth (for strains in Tables 1-3) or Brain Heart Infusion broth (for Enterococcus faecium) or Tryptic Soy Broth (all other bacteria) in a 96-well plate at 37° C. for at least 20 hours. The MIC was classified as the lowest concentration where no visual growth of bacteria was observed. The minimum bactericidal concentration (MBC) was tested by spotting 4 μL from wells with no growth onto Tryptic Soy Agar (TSA) plates. Plates were incubated at 37° C. for at least 18 hours before recording the MBC.
# MRSA ATCC 33592 = experiment: MIC, broth microdilution, MRSA ATCC 33592; type: cell-based, methicillin-resistant S. aureus; settings: Staphylococcus aureus
# Method: All MRSA isolates were acquired from BEI Resources. The remaining bacteria were purchased from the American Type Culture Collection (ATCC).
# as §1
# [1] = test system: Neisseria gonorrhea strain 181; experiment: MIC against Neisseria gonorrhea strain 181; type: cell-based
# Method: as §1
# [2] = test system: C. difficile NR-32895 (P19); experiment: MIC against C. difficile NR-32895 (P19); type: cell-based; settings: Clostridioides difficile; read-out: MIC C. difficile NR-32895 (P19)
# Method: as §1
# [3] = test system: C. difficile NR-13435 (isolate 9); experiment: MIC against C. difficile NR-13435 (isolate 9); type: cell-based; settings: Clostridioides difficile; read-out: MIC C. difficile NR-13435 (isolate 9)
# Method: as §1
# [4] = test system: C. difficile NR-32891 (P13); experiment: MIC against C. difficile NR-32891 (P13); type: cell-based; settings: Clostridioides difficile; read-out: MIC C. difficile NR-32891 (P13)
# Method: as §1
# [5] = test system: C. difficile NR-32904 (P30); experiment: MIC against C. difficile NR-32904 (P30); type: cell-based; settings: Clostridioides difficile; read-out: MIC C. difficile NR-32904 (P30)
# Method: as §1
# [6] = test system: C. difficile NR-13432 (isolate 6); experiment: MIC against C. difficile NR-13432 (isolate 6); type: cell-based; settings: Clostridioides difficile; read-out: MIC C. difficile NR-13432 (isolate 6)
# Method: as §1
# C. difficile ATCC 43255 = experiment: MIC against C. difficile ATCC 43255; type: cell-based; settings: Clostridioides difficile, ATCC43255; read-out: MIC C. difficile ATCC 43255
# Method: as §1
# [7] = test system: C. difficile ATCC BAA 1801; experiment: MIC against C. difficile ATCC BAA 1801; type: cell-based; settings: Clostridioides difficile, BAA1801; read-out: MIC C. difficile ATCC BAA 1801
# Method: as §1
# [8] = test system: C. difficile NR-32883 (P2); experiment: MIC against C. difficile NR-32883 (P2); type: cell-based; settings: Clostridioides difficile; read-out: MIC C. difficile NR-32883 (P2)
# Method: as §1
# MRSA USA300 cells = experiment: Time-kill assay; type: cell-based
# Method: The time-kill analysis was performed as previously described^29. […] Aliquots (100 μL) were collected from each treatment after 0, 2, 4, 8, 12, and 24 hours of incubation at 37° C. and subsequently serially diluted in phosphate-buffered saline (PBS). Bacteria were then transferred to TSA plates and incubated at 37° C. for 18-20 hours before viable CFU/mL was determined (see FIG. 2).
Structure (SMILES),MIC (S. aureus),MIC (MRSA ATCC 33592),also measured
"O=C(Nc1nnn(Cc2ccccc2)n1)c1ccc(S(F)(F)(F)(F)F)cc1 [HSGN-2136, N-(2-benzyl-2H-tetrazol-5-yl)-4-(pentafluoro-λ^6-sulfaneyl)benzamide]",> 128 µg/mL,> 128 µg/mL,
"O=C(Nc1nnc(C2CCCC2)o1)c1ccc(S(F)(F)(F)(F)F)cc1 [HSGN-2143, N-(5-cyclopentyl-1,3,4-oxadiazol-2-yl)-4-(pentafluoro-16-sulfaneyl)benzamide]",2 µg/mL,1 µg/mL,
"CCCc1nnc(NC(=O)c2ccc(S(F)(F)(F)(F)F)cc2)o1 [HSGN-2142, 4-(pentafluoro-λ^6-sulfaneyl)-N-(5-propyl-1,3,4-oxadiazol-2-yl)benzamide]",1 µg/mL,0.5 µg/mL,
"O=C(Nc1nnc(-c2ccc(Cl)cc2Cl)o1)c1ccc(SC(F)(F)F)cc1 [HSGN-248, N-(5-(2,4-dichlorophenyl)-1,3,4-oxadiazol-2-yl)-4-((trifluoromethyl)thio)benzamide]",0.5 µg/mL,0.25 µg/mL,MIC [1]: > 128 µg/mL; MIC [7]: 0.015 µg/mL
"CC(=O)NC[C@H]1CN(c2ccc(N3CCOCC3)c(F)c2)C(=O)O1 [Linezolid, reference compound]",,,"Bactericidal/Bacteriostatic (MRSA USA300 cells): Bacteriostatic; Δlog2 CFU/mL (MRSA USA300 cells; MRSA USA300, 3× MIC or 6× MIC, up to 24 hours): 1.7"
"CC[C@H]1OC(=O)[C@H](C)[C@@H](O[C@H]2C[C@@](C)(OC)[C@@H](O)[C@H](C)O2)[C@H](C)[C@@H](O[C@@H]2O[C@H](C)C[C@H](N(C)C)[C@H]2O)[C@](C)(O)C[C@@H](C)CN(C)[C@H](C)[C@@H](O)[C@]1(C)O [Azithromycin, reference compound]",,,MIC [1]: 256 µg/mL
"O=S(=O)(Nc1nnc(-c2cccc(Cl)c2)o1)c1ccc(SC(F)(F)F)cc1 [HSGN-256, N-(5-(3-chlorophenyl)-1,3,4-oxadiazol-2-yl)-4-((trifluoromethyl)thio)benzenesulfonamide]",> 64 µg/mL,> 64 µg/mL,

# Second part, led by results:
MIC (S. aureus),MIC (MRSA ATCC 33592),Structure (SMILES),also measured
0.5 µg/mL,0.5 µg/mL,"O=C(Nc1nnc(-c2cccc(Br)c2)o1)c1ccc(SC(F)(F)F)cc1 [HSGN-217, N-(5-(3-bromophenyl)-1,3,4-oxadiazol-2-yl)-4-((trifluoromethyl)thio)benzamide]",MIC [1]: 0.25 µg/mL; MIC [2]: 0.125 µg/mL; MIC [3]: 0.06 µg/mL; MIC [4]: 0.125 µg/mL; MIC [5]: 0.125 µg/mL; MIC [6]: 0.06 µg/mL; MIC (C. difficile ATCC 43255): 0.06 µg/mL; MIC [7]: 0.06 µg/mL; MIC [8]: 0.06 µg/mL
32 µg/mL,32 µg/mL,"O=C(Nc1nnc(C(F)(F)F)o1)c1ccc(S(F)(F)(F)(F)F)cc1 [HSGN-2141, 4-(pentafluoro-λ^6-sulfaneyl)-N-(5-(trifluoromethyl)-1,3,4-oxadiazol-2-yl)benzamide]",
2 µg/mL,2 µg/mL,"Cc1ccc(-c2nnc(NC(=O)c3ccc(SC(F)(F)F)cc3)o2)s1 [HSGN-258, N-(5-(5-methylthiophen-2-yl)-1,3,4-oxadiazol-2-yl)-4-((trifluoromethyl)thio)benzamide]",
4 µg/mL,2 µg/mL,O=C(Nc1nnc(-c2cccs2)o1)c1ccc(C(F)(F)F)s1 [HSGN-170],
